Results reported in publication PMC10145367, “Acute and Transgenerational Effects of Non-Steroidal Anti-Inflammatory Drugs on Daphnia magna” (Toxics, 2023).
≈ marks a conversion by molar mass, not a printed value. Where two headings read alike, the source gives them in different places.

Legend:
[1] = tested on: acid phosphatase (ACP); design: method as in PMID 36835510; conditions: chronic exposure of daphnids; ref [30]; cited from earlier work
[2] = tested on: Daphnia magna; conditions: cited from earlier work
[3] = tested on: peptidase (PEP); conditions: cited from earlier work
[4] = tested on: alkaline phosphatase (ALP); design: method as in PMID 36835510; conditions: chronic exposure of daphnids; ref [30]; cited from earlier work
[5] = tested on: lipase (LIP); experiment: Lipase activity in daphnid homogenate after chronic/transgenerational exposure; format: in vivo, Daphnia magna
[6] = tested on: acid phosphatase (ACP); experiment: Acid phosphatase activity in daphnid homogenate after chronic/transgenerational exposure; format: in vivo, Daphnia magna
[7] = tested on: peptidase (PEP); experiment: Peptidase activity in daphnid homogenate after chronic/transgenerational exposure; format: in vivo, Daphnia magna
[8] = tested on: β-galactosidase (β-gal)
Method: (§1) Chronic exposure was performed at 1 mg/L of each NSAID and their 1:1 mixture separately, which was selected as a non-lethal concentration. For enzyme activities in chronic and transgenerational exposures, neonates were cultured for two consecutive generations and following a 21-day recovery period (Figure 1B). […] Media and NSAIDs were renewed twice a week. Although the concentration of NSAIDs was not measured throughout the exposure, their renewal twice a week was sufficient to exert their action. […] Daphnids were fed daily with 2 mL fresh algae (C. reinhardtii) with a concentration of 6 million cells/mL, and a seaweed extract (Ascophylum nodosum) was supplemented only on the days of media change.
(§2) Five 7, 14, and 21-day-old animals were used per biological replicate and homogenized in 0.5 mL ddH2O using a pestle homogenizer. The homogenate was cleared by centrifugation (12,000× g for 5 min at 5 °C), and the clear supernatant was collected and used to assess the enzyme activity as described elsewhere. 200 μL appropriately diluted sample in buffer was assessed for the activity of phosphatases (in 100 mM acetic acid pH 4.5 for acid phosphatase or 100 mM boric acid pH 9.8 for alkaline phosphatase) using 50 μL of the substrate p-nitrophenyl phosphate (8 mM) and monitoring the production of p-nitrophenol at 405 nm after its alkalinization (with 50 μL 4M NaOH). In addition, the activities of β-galactosidase and lipase were measured with the same experimental conditions by the generation of nitrophenol from the catalysis of o-nitrophenyl-β-galactoside or p-nitrophenyl butyrate, respectively, but in phosphate buffer pH 7.2. Glutathione-S-transferase (GST) activity was assessed by the reaction of reduced glutathione with 1-chloro-2,4-dinitrobenzene. 200 μL appropriately diluted sample in phosphate buffer pH 7.2 was mixed with 50 μL 2 mM CDNB, and 6 mM reduced glutathione, and the formation of the complex was measured continuously at 340 nm and converted to units of activity with the extinction coefficient. Protein was quantified by an ultrasensitive Bradford protocol to normalize the results.

[9] = tested on: alkaline phosphatase (ALP)
Method: as §1, §2

[10] = tested on: glutathione-S-transferase (GST)
Method: as §1, §2

[11] = tested on: Daphnia magna; experiment: Feeding assay (ingestion of fluorescent microparticles); format: in vivo; conditions: neonates, 1 mg/L for 24 h
Method: After 24 h, twenty […] transferred in a 12-well plate with 6 mL OECD containing the carboxylate-modified polystyrene, fluorescent red microparticles (2.0 μm mean particle size) at a concentration of 13 mg/L. The animals were exposed to the microplastic for up to 90 min, and media was collected every 15 min to estimate the removed microparticles by fluorescence at Ex 560 Em 590 nm using a TECAN plate reader. The concentration of microparticles in the media was optimized to ensure an excess of microparticles for the accurate quantification of ingestion. Furthermore, we have extensively tested these particles, which show no toxicity to the […] for the short exposure periods used. We performed control experiments with neonates, as they would be more sensitive, for even up to 10 h to microplastics at even higher concentrations (up to 52 mg/L), and all animals from all experiments following the feeding assay were alive and healthy. Fluorescence was expressed to the amount of ingested microparticles using a standard curve. To confirm the ingestion of microparticles in the gut of […], animals were imaged with a stereoscope and fluorescence microscopy using the TRITC filter for carboxyl functionalized particles. […] The animals were fed daily with 2 mL of fresh algae (Chlamydomonas reinhardtii) with a concentration of 6 million cells/mL. […]

[12] = tested on: GST; design: method as in PMID 32259738; conditions: exposure for 14 days; ref [71]; cited from earlier work
[13] = cited from earlier work
[14] = tested on: D. magna; conditions: ref [21], cited from earlier work
[15] = tested on: Daphnia magna; experiment: Acute toxicity (immobilization) of neonates, 24 h toxicity curves; conditions: for EC50: Daphnia magna, 24 h; for EC1 / EC5 / EC10 / EC20: neonates, 24 h exposure, immobilization
[16] = tested on: GST; conditions: 28-day exposure to 25 mg/L; ref [53]; cited from earlier work
[17] = tested on: D. magna; design: method as in PMID 27234514, PMID 19336980; conditions: after 24 h of exposure; ref [3],[5]; cited from earlier work
[18] = tested on: male zebrafish (Danio rerio); design: method as in PMID 29027214; conditions: 96 h, ref [13]; cited from earlier work
[19] = tested on: Thamnocephalus platyurus; conditions: after 24 h of exposure; ref [3],[5]; cited from earlier work
[20] = tested on: patients; design: method as in PMID 26865183; conditions: patients receiving it; ref [11]; cited from earlier work
[21] = tested on: Oryzias latipes; design: method as in PMID 27234514, PMID 19336980; conditions: after 24 h of exposure; ref [3],[5]; cited from earlier work
[22] = tested on: glutathione-S-transferase (GST); design: method as in PMID 32806449; conditions: intermediate concentrations (1.2 and 6 μg/L); ref [67]; cited from earlier work
[23] = 1 mg/L, age 7 days, first generation
[24] = 1 mg/L, age 14 days, first generation
[25] = 1 mg/L, age 21 days, 2nd generation
[26] = 1 mg/L, age 21 days, first generation
[27] = age 21 days, 3rd generation recovery in clean OECD media after two generations at 1 mg/L

O=C(O)Cc1ccccc1Nc1c(Cl)cccc1Cl [Diclofenac]
effect on activity of ACP [1]: reduced | effect on feeding rate ([2]; neonates of D. magna, ref [67],[68]): reduce the feeding rate | effect on activity of PEP ([3]; chronic exposure of daphnids, ref [30]): increasing | effect on activity of ALP [4]: reduced

CC(C)Cc1ccc(C(C)C(=O)O)cc1 (stereo not drawn) [Ibuprofen]
LIP enzyme activity [5, 23]: 123.76 ± 2.26 units/mg protein | change of LIP activity compared with DMSO [5, 23]: −10% | LIP enzyme activity [5, 24]: 148.12 ± 37.62 units/mg protein | LIP enzyme activity [5, 25]: 47.53 ± 1.66 units/mg protein | change of LIP activity compared with DMSO [5, 25]: −28% | LIP enzyme activity [5, 26]: 78.43 ± 4.27 units/mg protein | LIP enzyme activity [5, 27]: 53.32 ± 6.51 units/mg protein | ACP enzyme activity [6, 23]: 8.14 ± 0.33 units/mg protein | ACP enzyme activity [6, 25]: 2.78 ± 0.21 units/mg protein | ACP enzyme activity [6, 26]: 3.09 ± 0.04 units/mg protein | ACP enzyme activity [6, 27]: 3.24 ± 0.47 units/mg protein | PEP enzyme activity [7, 23]: 29.54 ± 7.34 units/mg protein | PEP enzyme activity [7, 24]: 1.93 ± 0.27 units/mg protein | PEP enzyme activity [7, 26]: 10.52 ± 1.39 units/mg protein | PEP enzyme activity [7, 27]: 4.61 ± 0.35 units/mg protein | change of β-gal activity compared with DMSO [8, 23]: −17% | β-gal enzyme activity [8, 23]: 1.26 ± 0.06 units/mg protein | β-gal enzyme activity [8, 24]: 2.08 ± 0.75 units/mg protein | change of β-gal activity compared with DMSO [8, 25]: −17% | β-gal enzyme activity [8, 25]: 3.93 ± 0.22 units/mg protein | β-gal enzyme activity [8, 26]: 5.13 ± 0.25 units/mg protein | ALP enzyme activity [9, 23]: 6.55 ± 0.26 units/mg protein | ALP enzyme activity [9, 24]: 2.63 ± 0.14 units/mg protein | ALP enzyme activity [9, 25]: 3.27 ± 0.15 units/mg protein | change of ALP activity compared with DMSO [9, 25]: −10% | GST enzyme activity [10, 23]: 95.6 ± 10 munits/mg protein | GST enzyme activity [10, 24]: 151.7 ± 11.7 munits/mg protein | GST enzyme activity [10, 25]: 123.5 ± 2.1 munits/mg protein | change of GST activity compared with DMSO [10, 25]: +18% | GST enzyme activity [10, 26]: 67.6 ± 4.4 munits/mg protein | reduction of feeding rate compared to DMSO [11]: 30% | effect on activity of GST [12]: reduced the activity of GST | average strength maintained ([13]; for 5 months, ref [39]): > 90% | time stable ([13]; room temperature, ref [37],[38]): 15 days | survival ([14]; neonates exposed to 20 mg/L and 40 mg/L for 14 days): unaffected | reduction of survival ([14]; neonates exposed to 80 mg/L for 14 days): 19% | EC50 [15]: 17.8 µg/mL (≈ 86.3 µM) | EC1 [15]: 8.62 mg/L | EC5 [15]: 11.19 mg/L | EC10 [15]: 12.59 µg/mL (≈ 61 µM) | EC20 [15]: 14.3 µg/mL (≈ 69.3 µM) | effect on activity of GST [16]: increase in the activity of GST

COc1ccc2c(c1)c(CC(=O)O)c(C)n2C(=O)c1ccc(Cl)cc1 [Indomethacin]
LIP enzyme activity [5, 23]: 72.94 ± 11.09 units/mg protein | change of LIP activity compared with DMSO [5, 23]: −47% | LIP enzyme activity [5, 24]: 193.84 ± 25.81 units/mg protein | LIP enzyme activity [5, 25]: 56.41 ± 3.09 units/mg protein | change of LIP activity compared with DMSO [5, 25]: −15% | LIP enzyme activity [5, 26]: 90.86 ± 0.42 units/mg protein | LIP enzyme activity [5, 27]: 51.19 ± 2.04 units/mg protein | lethal concentration [17]: 22.38 mg/L | ACP enzyme activity [6, 23]: 6.82 ± 0.51 units/mg protein | ACP enzyme activity [6, 24]: 6.02 ± 0.71 units/mg protein | ACP enzyme activity [6, 25]: 2.67 ± 0.15 units/mg protein | ACP enzyme activity [6, 26]: 2.84 ± 0.13 units/mg protein | change of ACP activity compared with DMSO [6, 26]: −10% | ACP enzyme activity [6, 27]: 3.21 ± 0.28 units/mg protein | PEP enzyme activity [7, 23]: 27.26 ± 5.01 units/mg protein | PEP enzyme activity [7, 24]: 1.94 ± 0.06 units/mg protein | PEP enzyme activity [7, 25]: 6.81 ± 0.26 units/mg protein | change of PEP activity compared with DMSO [7, 25]: −14% | PEP enzyme activity [7, 26]: 10.82 ± 0.6 units/mg protein | change of PEP activity compared with DMSO [7, 26]: +16% | PEP enzyme activity [7, 27]: 5.33 ± 0.49 units/mg protein | change of β-gal activity compared with DMSO [8, 23]: −40% | β-gal enzyme activity [8, 23]: 0.91 ± 0.14 units/mg protein | β-gal enzyme activity [8, 24]: 2.23 ± 0.39 units/mg protein | β-gal enzyme activity [8, 25]: 4.7 ± 0.23 units/mg protein | change of β-gal activity compared with DMSO [8, 26]: +11% | β-gal enzyme activity [8, 26]: 5.93 ± 0.19 units/mg protein | β-gal enzyme activity [8, 27]: 5.03 ± 0.44 units/mg protein | ALP enzyme activity [9, 23]: 6.22 ± 0.21 units/mg protein | change of ALP activity compared with DMSO [9, 23]: −13% | ALP enzyme activity [9, 24]: 3.05 ± 0.29 units/mg protein | ALP enzyme activity [9, 25]: 3.8 ± 0.18 units/mg protein | ALP enzyme activity [9, 26]: 5.05 ± 0.17 units/mg protein | ALP enzyme activity [9, 27]: 4.16 ± 0.24 units/mg protein | GST enzyme activity [10, 23]: 107.9 ± 11.6 munits/mg protein | GST enzyme activity [10, 24]: 144.7 ± 5.4 munits/mg protein | GST enzyme activity [10, 25]: 94.6 ± 2.9 munits/mg protein | change of GST activity compared with DMSO [10, 25]: −9% | GST enzyme activity [10, 26]: 52.3 ± 1.5 munits/mg protein | GST enzyme activity [10, 27]: 154.7 ± 4.2 munits/mg protein | reduction of feeding rate compared to DMSO [11]: 35% | EC50 [18]: 76.30 µg/mL (≈ 213 µM) | lethal concentration [19]: 16.14 mg/L | patients with adverse effects [20]: 30–60% | EC50 [15]: 17.5 µg/mL (≈ 48.8 µM) | EC1 [15]: 6.61 mg/L | EC5 [15]: 9.37 mg/L | EC10 [15]: 10.97 µg/mL (≈ 30.7 µM) | EC20 [15]: 13.02 µg/mL (≈ 36.4 µM) | lethal concentration [21]: 81.92 mg/L

CC(=O)Oc1ccccc1C(=O)O [acetylsalicylic acid]
effect on activity of PEP ([3]; acute exposure of daphnids, ref [28]): decreased

CC(C(=O)O)c1cccc(C(=O)c2ccccc2)c1 (stereo not drawn) [ketoprofen]
effect on feeding ([2]; D5 daphnids, ref [67]): did not affect the feeding | effect on activity of GST [22]: increased the activity of GST
